The results in this text go back to patent publication US12365850B2, “Water-miscible functional fluid, undiluted stock of water-miscible functional fluid, sterilizer for water-miscible functional fluid, and method of sterilizing water-miscible function fluid” (priority 2020, dated 2025).

For this test, the system named is bacteria. The test is described as follows: Photosterilization test of neutral photosensitizers (bacterial count after light irradiation). To be noted: wavelength 450 nm, photosensitizer 50 ppm (Lumichrome 20 ppm). Format: cell-based.
Setting [1] is: irradiance 100 μW/cm2, light intensity 10 J/cm2.
[2] abbreviates: irradiance 100 μW/cm2, light intensity 30 J/cm2.
Where [3] appears, read: irradiance 100 μW/cm2, light intensity 50 J/cm2.
Where [4] appears, read: irradiance 100 μW/cm2, light intensity 100 J/cm2.
[5] abbreviates: irradiance 100 μW/cm2, light intensity 200 J/cm2.
The mark [6] stands for this setting: irradiance 100 μW/cm2, light intensity 400 J/cm2.

On to `Cc1cc2nc3c(=O)[nH]c(=O)nc-3n(CC(O)C(O)C(O)COP(=O)([O-])O)c2cc1C.[Na+]` (stereo not drawn) [Example 6, Riboflavin sodium phosphate], for which the Bacterial count result under setting [1] is recorded as “++ (bacterial count was 1.0×10^6 CFU/ml to 1.4×10^7 CFU/ml)”; the Bacterial count result under setting [2] was “+ (bacterial count was at least 1.0×10^2 CFU/ml and less than 1.0×10^6 CFU/ml)”; the Bacterial count result under setting [3] is “+ (bacterial count was at least 1.0×10^2 CFU/ml and less than 1.0×10^6 CFU/ml)”; the Bacterial count result under setting [4] is “+ (bacterial count was at least 1.0×10^2 CFU/ml and less than 1.0×10^6 CFU/ml)”; the Bacterial count result under setting [5] was “− (bacterial count was at least 0 and less than 1.0×10^2 CFU/mil)”; the Bacterial count result under setting [6] was “− (bacterial count was at least 0 and less than 1.0×10^2 CFU/mil)”.

Take `CCCC(=O)OCC(OC(=O)CCC)C(OC(=O)CCC)C(Cn1c2nc(=O)[nH]c(=O)c-2nc2cc(C)c(C)cc21)OC(=O)CCC` (stereo not drawn) [Example 7, Riboflavin butyrate]: the Bacterial count result is, setting by setting: under setting [1], “++ (bacterial count was 1.0×10^6 CFU/ml to 1.4×10^7 CFU/ml)”; under setting [2], “+ (bacterial count was at least 1.0×10^2 CFU/ml and less than 1.0×10^6 CFU/ml)”; under setting [3], “+ (bacterial count was at least 1.0×10^2 CFU/ml and less than 1.0×10^6 CFU/ml)”; under setting [4], “+ (bacterial count was at least 1.0×10^2 CFU/ml and less than 1.0×10^6 CFU/ml)”; under setting [5], “− (bacterial count was at least 0 and less than 1.0×10^2 CFU/mil)”; under setting [6], “− (bacterial count was at least 0 and less than 1.0×10^2 CFU/mil)”.
